Data from publication PMC6854577, “Quantitation of Thyroid Hormone Binding to Anti-Thyroxine Antibody Fab Fragment by Native Mass Spectrometry” (ACS Omega, 2019).
“And” between values parts separate entries of the source, which are not always exact repeats. Equal values may be shown once.

Assays:
[1] = target: anti-T4 antibody Fab fragment; test: Native MS initial ligand screening (approximate affinities, stoichiometry); assay type: binding, mouse; conditions: 0.1 μM Fab; for approximate binding affinity: initial ligand screening
Procedure: (§1) All mass spectrometric experiments were performed by using a 12-T Bruker solariX XR Fourier transform ion cyclotron resonance (FT-ICR) instrument (Bruker Daltonics, Bremen, Germany) equipped with an electrospray ionization (ESI) source (Apollo-II). Mass spectra were obtained in a positive ion mode, and the samples were directly infused to the ion source at a flow rate of 2 μL min^–1. Dry nitrogen was used as nebulizing (4.0 L min^–1) and drying (80 °C, 1.0 bar) gas. The ions were accumulated in the hexapole ion trap for 3.5 s and then transferred to the dynamically harmonized ICR cell (Paracell) for trapping, excitation, and detection. The time of flight was set to 3.5 ms. All other instrumental parameters were carefully adjusted to preserve noncovalent interactions in the gas phase. […] The mass spectra were externally calibrated by the ESI Tuning mix (part no. G2431A; Agilent Technologies, Santa Clara, CA). The mass spectra were acquired from m/z 1500 to 5000. The data acquisition was attained by ftmsControl 2.1 software and further processed and analyzed by DataAnalysis 4.2 SR1 software. All native MS experiments were performed in 20 mM aqueous ammonium acetate (pH 6.9) solution.
First, the approximate binding affinities of thyroid hormones and tetrahalogen bisphenols to anti-T4 Fab were determined via initial screening experiments (Figures S1–S7).

[2] = target: anti-T4 antibody Fab fragment; test: Native MS (ESI FT-ICR) ligand competition with T2 as low-affinity reference ligand; assay type: binding, mouse; conditions: for binding affinity (in words): native MS
Procedure: as §1, with “All native MS experiments were performed in 20 mM aqueous ammonium acetate (pH 6.9) solution.” left out
To determine the binding affinities for the other ligands, ligand competition experiments were performed.[25],[26] Briefly, T2 was used as the “low-affinity” reference ligand, whose accurate Kd value was determined earlier by the direct ligand titration. The two ligands, competing for the same binding site in anti-T4 Fab, were mixed at the appropriate concentrations (determined earlier by initial screening experiments) with the protein at a fixed concentration of 0.1 μM. Ten replicates were measured for each ligand pair from three different samples.
A mathematical model to calculate Kd values from the competition experiments was as follows: For L and Lref, competing for a single binding site in P, the two equilibrium reactions are [drawing 2] [drawing 3] where P is the receptor protein, L is the ligand, and Lref is the “low-affinity” reference ligand. Briefly, the intensity ratio (R) of the total abundance of the ligand-bound protein (PL) and free protein (P) was calculated for each spectrum. The affinity measurement for the “low-affinity” ligand (Lref) was performed by a direct titration method. The individual Kd values for L and Lref are derived as [drawing 4] 2 [drawing 5] 3 where the brackets represent equilibrium concentrations of L, Lref, P, PL, and PLref. The mass balance equations at equilibrium are [drawing 6] 4 [drawing 7] 5 [drawing 8] 6 where [P]total, [L]total, and [Lref]total are the total protein, ligand, and reference ligand concentrations, respectively.
At equilibrium, [P] is the same for both ligands, and thus, eqs. […] were simplified to [drawing 9] 7
The ESI-MS spectrum directly provides normalized intensities (“concentration coefficients”) i(P), i(PL), and i(PLref), such that their sum equals 1, which can then be used to calculate equilibrium concentrations by eqs 8, 9, and 10: [drawing 10] 8 [drawing 11] 9 [drawing 12] 10 These calculations are valid if one assumes that the ionization and ion transmission efficiencies for P, PL, and PLref are the same (they are if mL ≈ mLref ≪ mP, which is true in this case), and there is no complex dissociation upon ionization/desolvation stages (i.e., careful adjustments of instrumental parameters). The intensities should be calculated as integrated sums of different charge states to avoid any bias resulting from different CSDs between the free and bound proteins. The free ligand concentrations, [L] and [Lref], can be obtained from eqs 5 and 6. The equilibrium concentrations [L], [Lref], [PL], and [PLref] as well as the predetermined/known Kd(Lref) can be inserted into eq 7 to calculate Kd(L).

[3] = target: anti-T4 antibody Fab fragment; test: Native MS (ESI FT-ICR) direct ligand titration; assay type: binding, mouse; conditions: 0.005-2.0 μM T2, 0.1 μM Fab
Procedure: All mass spectrometric experiments were performed by using a 12-T Bruker solariX XR Fourier transform ion cyclotron resonance (FT-ICR) instrument (Bruker Daltonics, Bremen, Germany) equipped with an electrospray ionization (ESI) source (Apollo-II). Mass spectra were obtained in a positive ion mode, and the samples were directly infused to the ion source at a flow rate of 2 μL min^–1. Dry nitrogen was used as nebulizing (4.0 L min^–1) and drying (80 °C, 1.0 bar) gas. The ions were accumulated in the hexapole ion trap for 3.5 s and then transferred to the dynamically harmonized ICR cell (Paracell) for trapping, excitation, and detection. The time of flight was set to 3.5 ms. […] The data acquisition was attained by ftmsControl 2.1 software and further processed and analyzed by DataAnalysis 4.2 SR1 software. […]
A direct ligand titration[9],[22],[23] was used to determine the binding constant for the “low-affinity” reference ligand. […] The fractional saturation (Y) of the protein was calculated from the intensity ratio of the protein–ligand complex (PL) and free protein (P) for every single ligand (L) concentration (intensities averaged over different charge states), and the data were fitted into the specific, single-site binding model[24] […] Five replicate samples were prepared and measured for each T2 concentration. […]

anti-T4 Fab = tested on: anti-T4 Fab; design: method as in PMID 9095353, PMID 9460543; conditions: SPR, cited from earlier work
THRα1 = target: THRα1; design: method as in PMID 15466465; conditions: cited from earlier work
[4] = 0.1 μM Fab, 20 mM ammonium acetate pH 6.8, ligand and reference ligand (T2) concentrations per Table 1, mean ± SD, 10 replicates of three samples, read-out: Kd
[5] = T4/T2 0.14/0.5 μM, T3/T2 0.14/0.5 μM, T0/T2 15/0.05 μM, 0.1 μM Fab, read-out: Kd (self-validation at second ligand concentrations)

Which results are given for `CC(C)(c1cc(I)c(O)c(I)c1)c1cc(I)c(O)c(I)c1` [TIB, tetraiodobisphenol-A]?
approximate binding affinity [1]: submicromolar to micromolar affinity range; Kd [2, 4]: 11 nM; binding affinity (in words) ([2]; anti-T4 Fab): nanomolar binding affinities

Which Kd ([3]; 20 mM ammonium acetate pH 6.8) does the source give for `N[C@@H](Cc1ccc(Oc2ccc(O)c(I)c2)c(I)c1)C(=O)O` [T2, 3,3′-diiodo-L-thyronine] here?
Its Kd is 260 nM.

What about the Kd ([3]; 20 mM ammonium acetate pH 6.8, one-site binding fit, five replicates) of the same compound?
Its Kd is 263 nM and 260 nM.

And the binding (anti-T4 Fab; within the Kd range accessible by the technique)?
Its binding is “did not show any binding”.

What about the approximate binding affinity [1] of the same compound?
The approximate binding affinity was “submicrometer range”.

With `N[C@@H](Cc1ccc(Oc2ccc(O)cc2)cc1)C(=O)O` [T0, L-thyronine] as the compound, how does the approximate binding affinity [1] read?
The approximate binding affinity was “submicromolar to micromolar affinity range”.

And the Kd [2, 4]?
The Kd was 130000 nM.

And the Kd [2, 5]?
Its Kd is 174000 nM.

And the “binding affinity relative to T3” value ([2]; anti-T4 Fab, native MS Kd values compared)?
Its value is “approximately five orders of magnitude lower”.

And the Kd ([2]; competition with T2 as reference ligand, as given in the abstract, read-out: Kd)?
The Kd was 130000 nM.

Which ligand saturation ([1]; ligand added until saturation) does the source give for `CC(C)(c1cc(Cl)c(O)c(Cl)c1)c1cc(Cl)c(O)c(Cl)c1` [TCB, tetrachlorobisphenol-A] here?
Its ligand saturation is “saturative binding was not observed even at a molar ligand excess of 200”.

And the approximate binding affinity [1]?
The approximate binding affinity was “submicromolar to micromolar affinity range”.

What about the Kd [2, 4] of the same compound?
The Kd was 7800 nM.

Which “affinity relative to T3” value (anti-T4 Fab) does the source give for `N[C@@H](Cc1cc(I)c(Oc2cc(I)c(O)c(I)c2)c(I)c1)C(=O)O` [T4, L-thyroxine] here?
Its value is “approximately 10 times”.

And the Kd (THRα1)?
Its Kd is 2 nM.

And the approximate binding affinity [1]?
The approximate binding affinity was “low nanomolar binding affinities”.

What about the Kd [2, 4] of the same compound?
Its Kd is 29 nM.

What about the Kd [2, 5] of the same compound?
The Kd was 23.9 nM.

With `CC(C)(c1cc(Br)c(O)c(Br)c1)c1cc(Br)c(O)c(Br)c1` [TBB, tetrabromobisphenol-A] as the compound, how does the approximate binding affinity [1] read?
Its approximate binding affinity is “submicromolar to micromolar affinity range”.

And the Kd [2, 4]?
Its Kd is 87 nM.

And the “binding affinity (in words)” value ([2]; anti-T4 Fab)?
Its value is “nanomolar binding affinities”.
